Results: patent US10426815B2, “Prevention and treatment of itch with an MRGPR antagonist” (THE GENERAL HOSPITAL CORPORATION, priority 2015, dated 2019)
“Also recorded” adds a separate entry of the source.

What was measured:
Format in all cases: cell-based
MrgX3 (human MRGPRX3) = target: T1, MrgX3 (human MRGPRX3) (Homo sapiens, UniProt Q96LB0); assay: Calcium imaging of cells transfected with the GPCR (Table 1); conditions: SP 10 μM (FIG. 9)
T1 construct: expressed in transfected cells; host or cells: HeLa cells, pcDNA3.1(-)
Experimental: (§1) Human NK1 cDNA was obtained from LIFE Technologies, PCR cloned with Xho I-Hind III ends and cloned into pcDNA3.1(−). Mouse NK2 and NK3 expression-ready vectors were obtained from […] (Piscataway, N.J.). All other Mrgprs (human MRGPRX1, human MRGPRX2, human MRGPRX3, human MRGPRX4, mouse MrgprA2a, mouse MrgprA2b, mouse MrgprA3, mouse MrgprA4, mouse MrgprA9, mouse MrgprA10, mouse MrgprB4 and mouse MrgprB5) were cloned by PCR from genomic DNAs and inserted into pcDNA3.1 (−).
(§2) 10 μg of expression vector (human MRGPRX2, mouse MrgprA1 or NK1) and 10 μl of LIPOFECTAMINE 2000 transfection reagent were diluted into 0.5 ml of DMEM and separately left at room temperature (RT) for 5 min. They were then mixed and incubated at RT for 20 minutes prior to being added to HeLa cells. HeLa cells were grown to confluence, trypsinized and 1×10^6 cells were pelleted in a 15 ml tube by centrifugation at 1000 rpm for 5 minutes. […]
(§3) Calcium imaging was performed immediately after loading cells with Fura-2, using a ZEISS Axiovert 200M microscope platform equipped with a flipping filter wheel for ratiometric imaging. […] The software later analyzed all images taken during each excitation period. Ratiometric changes were measured in 10-20 cells in each individual experiment. An average of the fluorescence of the cells in each image was calculated and plotted against time in seconds. […]

MrgX4 (human MRGPRX4) = target: T2, MrgX4 (human MRGPRX4) (Homo sapiens, UniProt Q96LA9); assay: as above; conditions: SP 10 μM (FIG. 9)
T2 construct: expressed in transfected cells; host or cells: HeLa cells, pcDNA3.1(-)
Experimental: as §1, §2, §3

human LAD2 mast cells = assay: Human LAD2 mast cell degranulation assay (β-hexosaminidase release); conditions: LAD2 cells preincubated with 100 μM QWF for 10 min
Experimental: The human LAD2 mast cell line (from D. Metcalfe, National Institute of Allergy and Infectious Diseases, NIH, Bethesda, Md.) was cultured in StemPro-34 SFM medium (LIFE TECHNOLOGIES) supplemented with 2 mM L-glutamine, 100 U/ml penicillin, 100 μg/ml streptomycin, and 100 ng/ml recombinant human stem cell factor (PEPROTECH). The cells were maintained at 0.25-5×10^5 cells/ml at 37° C. and 5% CO2 and hemi-depleted each week.
Degranulation was measured as described previously (36). In brief, LAD2 cells were preincubated with 100 μM QWF for 10 min before activation by agonists at indicated concentrations for 30 min. The level of mast cell degranulation was assessed by the release of β-hexosaminidase in mast cell granules, quantified by the level of its substrate p-nitrophenyl N-acetyl-β-D-glucosamide (PNAG) digested in a colorimetric assay.

MrgA3 (mouse MrgprA3) = target: T3, MrgA3 (mouse MrgprA3) (Mus musculus, UniProt Q91WW3); assay: Calcium imaging of cells transfected with the GPCR (Table 1); conditions: FIG. 7c: CQ 100 μM, QWF 100 μM
T3 construct: expressed in transfected cells; host or cells: HeLa cells, pcDNA3.1(-)
T3 sequence (Q91WW3 1-302): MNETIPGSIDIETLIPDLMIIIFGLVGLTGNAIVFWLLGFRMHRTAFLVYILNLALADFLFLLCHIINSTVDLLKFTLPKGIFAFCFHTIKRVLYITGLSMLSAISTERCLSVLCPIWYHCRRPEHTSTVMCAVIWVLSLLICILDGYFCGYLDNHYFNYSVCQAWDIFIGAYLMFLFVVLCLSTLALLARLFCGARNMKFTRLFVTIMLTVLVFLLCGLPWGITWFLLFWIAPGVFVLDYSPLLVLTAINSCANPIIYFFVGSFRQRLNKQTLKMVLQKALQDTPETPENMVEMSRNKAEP
Experimental: as §1
10 μg of expression vector (human MRGPRX2, mouse MrgprA1 or NK1) and 10 μl of LIPOFECTAMINE 2000 transfection reagent were diluted into 0.5 ml of DMEM and separately left at room temperature (RT) for 5 min. They were then mixed and incubated at RT for 20 minutes prior to being added to HeLa cells. HeLa cells were grown to confluence, trypsinized and 1×10^6 cells were pelleted in a 15 ml tube by centrifugation at 1000 rpm for 5 minutes. The DMEM-LIPOFECTAMINE 2000-DNA mixture (1 ml) was then added to the cell pellet, suspended and incubated at RT for 5 minutes. 2 ml of complete DMEM with 10% FBS without antibiotics were added to the tube, mixed by inverting the tube, plated into a 96-well glass bottom plate at 50,000 cells/well, and placed in a 37° C. CO2 incubator for 3 hours. HeLa cells transfected with salmon sperm DNA were plated as a control. The medium was changed after 3 hours and left in the incubator. 24 hours after transfection, the medium in the wells was removed and 100 μl of complete DMEM containing 2 μM of FURA-2 were added to each well and left at room temperature in the dark for 1 hr.
Calcium imaging was performed immediately after loading cells with Fura-2, using a ZEISS Axiovert 200M microscope platform equipped with a flipping filter wheel for ratiometric imaging. Axiovision software, version 4.6 was used for calcium image analysis of the cells excited at 340 nm and 380 nm. Agonists were added at 15 seconds after the start of the excitation procedure. Antagonists were added five minutes before imaging with the agonists. Images were taken every 5 seconds, including at zero time, during a 90 second period or longer if required. The software later analyzed all images taken during each excitation period. Ratiometric changes were measured in 10-20 cells in each individual experiment. An average of the fluorescence of the cells in each image was calculated and plotted against time in seconds.

NK1R (NK1) = target: T4, NK1R (NK1) (Homo sapiens, UniProt P25103); assay: as above; conditions: FIG. 6a: SP 5 nM, inhibitors 1 μM
T4 construct: host or cells: HeLa cells, pcDNA3.1(-)
Experimental: as §1, §2
Calcium imaging was performed immediately after loading cells with Fura-2, using a ZEISS Axiovert 200M microscope platform equipped with a flipping filter wheel for ratiometric imaging. […] The software later analyzed all images taken during each excitation period. Ratiometric changes were measured in 10-20 cells in each individual experiment. An average of the fluorescence of the cells in each image was calculated and plotted against time in seconds.

T4 sequence (P25103 whole entry): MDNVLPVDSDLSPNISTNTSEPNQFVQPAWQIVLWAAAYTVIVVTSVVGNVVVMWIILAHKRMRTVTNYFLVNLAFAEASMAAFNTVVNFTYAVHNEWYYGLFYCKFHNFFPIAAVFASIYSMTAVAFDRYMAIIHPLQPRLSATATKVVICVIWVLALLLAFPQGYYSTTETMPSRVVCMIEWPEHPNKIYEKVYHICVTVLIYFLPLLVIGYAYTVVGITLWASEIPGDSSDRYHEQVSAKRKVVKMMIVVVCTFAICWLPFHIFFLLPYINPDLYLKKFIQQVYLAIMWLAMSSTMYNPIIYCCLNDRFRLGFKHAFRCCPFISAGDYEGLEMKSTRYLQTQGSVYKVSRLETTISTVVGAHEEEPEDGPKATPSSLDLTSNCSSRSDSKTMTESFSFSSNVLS
T2 sequence (Q96LA9 whole entry): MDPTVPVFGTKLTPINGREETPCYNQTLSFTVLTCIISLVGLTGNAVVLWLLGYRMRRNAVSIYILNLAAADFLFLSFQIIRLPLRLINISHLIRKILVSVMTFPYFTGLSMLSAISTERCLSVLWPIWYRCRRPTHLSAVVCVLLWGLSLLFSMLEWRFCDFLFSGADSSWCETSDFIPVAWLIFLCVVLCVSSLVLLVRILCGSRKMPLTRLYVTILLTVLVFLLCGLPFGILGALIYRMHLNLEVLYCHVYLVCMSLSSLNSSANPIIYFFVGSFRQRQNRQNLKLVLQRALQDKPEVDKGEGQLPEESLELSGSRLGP
T1 sequence (Q96LB0 whole entry): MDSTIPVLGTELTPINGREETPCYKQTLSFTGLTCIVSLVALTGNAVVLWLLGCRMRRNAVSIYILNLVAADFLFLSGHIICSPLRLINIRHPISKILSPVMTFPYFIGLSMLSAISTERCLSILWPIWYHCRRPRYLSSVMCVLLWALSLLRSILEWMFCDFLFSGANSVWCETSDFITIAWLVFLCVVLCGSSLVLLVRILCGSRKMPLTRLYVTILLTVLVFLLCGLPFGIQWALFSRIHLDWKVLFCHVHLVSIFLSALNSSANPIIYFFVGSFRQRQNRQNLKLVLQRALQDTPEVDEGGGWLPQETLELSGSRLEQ

Substance	activation of hMRGPRX3 by the substance (in words) (MrgX3 (human MRGPRX3))	activation of hMRGPRX4 by the substance (in words) (MrgX4 (human MRGPRX4))	inhibition of degranulation induced by SP (human LAD2 mast cells)	inhibition of degranulation induced by atracurium (human LAD2 mast cells)	inhibition of degranulation induced by ciprofloxacin (human LAD2 mast cells)	inhibition of degranulation induced by compound 48/80 (human LAD2 mast cells)	inhibition of MrgprA3 activation by chloroquine (CQ) (MrgA3 (mouse MrgprA3))	inhibition of NK1 (activation by SP) (NK1R (NK1))
SP: inflammatory undecapeptide neuropeptide of the tachykinin family, synthesized by GenScript	does not activate	does not activate						
Boc-Gln-D-Trp(Formyl)-Phe benzyl ester trifluoroacetate [QWF]			significantly inhibits	significantly inhibits	significantly inhibits	significantly inhibits	does not affect; also recorded: does not inhibit	inhibit; also recorded: blocks
